Laboratory results: patent publication US10670605B2, “Cysteine reactive probes and uses thereof” (The Scripps Research Institute, priority 2015, dated 2020)

Key:
Test in all cases: Competitive isoTOP-ABPP in situ (fragment-treated cells)
Type in all cases: cell-based
[1] = target: cysteines in MDA-MB-231 and Ramos cells (Homo sapiens, UniProt Q8NDH3); conditions: 200 μM, insitu, 231
[2] = target: cysteines in MDA-MB-231 and Ramos cells (Homo sapiens, UniProt Q14790); conditions: 200 μM, insitu
[3] = target: T1, cysteines in MDA-MB-231 and Ramos cells (Homo sapiens, UniProt Q9Y679); conditions: 200 μM, insitu, 231
T1 sequence (Q9Y679 1-410): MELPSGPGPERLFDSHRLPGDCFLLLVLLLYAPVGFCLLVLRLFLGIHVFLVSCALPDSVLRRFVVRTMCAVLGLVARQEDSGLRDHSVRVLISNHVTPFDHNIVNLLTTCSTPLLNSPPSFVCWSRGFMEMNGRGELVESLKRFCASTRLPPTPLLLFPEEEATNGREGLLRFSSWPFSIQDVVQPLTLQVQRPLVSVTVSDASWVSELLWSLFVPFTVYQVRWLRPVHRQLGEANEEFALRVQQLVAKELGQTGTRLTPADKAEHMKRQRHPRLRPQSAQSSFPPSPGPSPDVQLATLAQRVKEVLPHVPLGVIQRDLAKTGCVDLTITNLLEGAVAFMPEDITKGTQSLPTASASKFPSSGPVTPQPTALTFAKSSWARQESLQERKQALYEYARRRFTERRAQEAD

[4] = target: cysteines in MDA-MB-231 and Ramos cells (Homo sapiens, UniProt P27707); conditions: 200 μM, insitu
Chain of cysteines in MDA-MB-231 and Ramos cells (Homo sapiens, UniProt P27707) (P27707 whole entry): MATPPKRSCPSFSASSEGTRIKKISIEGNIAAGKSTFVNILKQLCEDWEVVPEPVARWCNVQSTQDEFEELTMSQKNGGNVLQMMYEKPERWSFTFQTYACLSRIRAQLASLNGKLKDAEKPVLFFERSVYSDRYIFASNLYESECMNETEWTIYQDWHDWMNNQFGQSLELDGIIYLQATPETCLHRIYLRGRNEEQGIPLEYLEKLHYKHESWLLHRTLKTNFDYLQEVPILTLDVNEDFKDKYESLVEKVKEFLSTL

[5] = target: T2, cysteines in MDA-MB-231 and Ramos cells (Homo sapiens, UniProt Q96F86); conditions: 200 μM, insitu
T2 sequence (Q96F86 1-508): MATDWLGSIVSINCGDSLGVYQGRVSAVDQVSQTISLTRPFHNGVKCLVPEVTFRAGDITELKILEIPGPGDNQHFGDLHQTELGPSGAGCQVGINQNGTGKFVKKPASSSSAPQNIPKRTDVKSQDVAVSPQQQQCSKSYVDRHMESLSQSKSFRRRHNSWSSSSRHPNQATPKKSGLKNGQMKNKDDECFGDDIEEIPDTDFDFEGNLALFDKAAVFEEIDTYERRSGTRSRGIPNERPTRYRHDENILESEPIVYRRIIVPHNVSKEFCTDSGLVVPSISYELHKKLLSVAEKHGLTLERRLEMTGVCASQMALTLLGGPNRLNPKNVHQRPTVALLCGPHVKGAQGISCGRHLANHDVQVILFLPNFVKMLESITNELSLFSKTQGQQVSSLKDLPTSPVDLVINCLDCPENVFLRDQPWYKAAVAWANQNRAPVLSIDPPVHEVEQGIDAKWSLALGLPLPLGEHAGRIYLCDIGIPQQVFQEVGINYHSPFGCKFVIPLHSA

[6] = target: T3, cysteines in MDA-MB-231 and Ramos cells (Homo sapiens, UniProt O14929); conditions: 200 μM, insitu
T3 sequence (O14929 1-419): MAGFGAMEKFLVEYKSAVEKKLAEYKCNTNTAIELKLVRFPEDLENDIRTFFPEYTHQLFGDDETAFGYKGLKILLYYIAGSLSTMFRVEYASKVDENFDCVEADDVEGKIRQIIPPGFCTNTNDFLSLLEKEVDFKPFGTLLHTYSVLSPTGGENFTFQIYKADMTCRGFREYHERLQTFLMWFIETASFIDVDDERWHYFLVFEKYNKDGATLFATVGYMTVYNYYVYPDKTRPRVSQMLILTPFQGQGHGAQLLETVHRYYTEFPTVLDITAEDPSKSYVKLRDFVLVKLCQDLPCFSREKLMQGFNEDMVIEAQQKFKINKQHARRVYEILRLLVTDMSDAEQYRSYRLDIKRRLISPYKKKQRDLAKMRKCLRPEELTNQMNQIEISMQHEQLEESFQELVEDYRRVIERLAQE

[7] = target: cysteines in MDA-MB-231 and Ramos cells (Homo sapiens, UniProt Q9BRJ7); conditions: 200 μM, insitu, 231
Chain of cysteines in MDA-MB-231 and Ramos cells (Homo sapiens, UniProt Q9BRJ7) (Q9BRJ7 whole entry): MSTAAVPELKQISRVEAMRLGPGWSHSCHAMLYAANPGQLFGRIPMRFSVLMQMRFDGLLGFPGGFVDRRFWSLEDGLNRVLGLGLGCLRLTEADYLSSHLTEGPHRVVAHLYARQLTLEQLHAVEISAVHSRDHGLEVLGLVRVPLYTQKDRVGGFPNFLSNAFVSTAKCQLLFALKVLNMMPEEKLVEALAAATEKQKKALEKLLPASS

[8] = target: T4, cysteines in MDA-MB-231 and Ramos cells (Homo sapiens, UniProt Q8N1F7); conditions: 200 μM, insitu
T4 sequence (Q8N1F7 1-819): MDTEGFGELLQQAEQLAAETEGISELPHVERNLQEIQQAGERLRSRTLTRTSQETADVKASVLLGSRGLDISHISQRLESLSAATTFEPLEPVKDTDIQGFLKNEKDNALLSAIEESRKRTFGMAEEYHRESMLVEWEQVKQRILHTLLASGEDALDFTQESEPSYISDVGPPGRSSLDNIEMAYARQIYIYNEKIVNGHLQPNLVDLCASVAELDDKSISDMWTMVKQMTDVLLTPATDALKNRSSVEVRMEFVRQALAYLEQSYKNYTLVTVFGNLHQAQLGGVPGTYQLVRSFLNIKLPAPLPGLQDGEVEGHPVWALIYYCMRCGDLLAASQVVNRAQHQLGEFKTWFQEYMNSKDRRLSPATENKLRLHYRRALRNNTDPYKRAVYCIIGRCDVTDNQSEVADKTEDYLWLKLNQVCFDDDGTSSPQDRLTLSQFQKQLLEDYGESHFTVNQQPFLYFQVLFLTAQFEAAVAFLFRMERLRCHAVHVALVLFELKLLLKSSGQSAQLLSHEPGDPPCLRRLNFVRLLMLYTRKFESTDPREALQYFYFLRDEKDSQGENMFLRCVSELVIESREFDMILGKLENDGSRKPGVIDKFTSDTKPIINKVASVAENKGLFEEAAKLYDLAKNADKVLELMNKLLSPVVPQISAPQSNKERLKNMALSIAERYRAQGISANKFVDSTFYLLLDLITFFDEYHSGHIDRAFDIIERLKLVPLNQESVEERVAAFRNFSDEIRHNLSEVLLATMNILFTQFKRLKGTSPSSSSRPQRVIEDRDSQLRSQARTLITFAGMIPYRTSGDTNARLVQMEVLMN

Chain of cysteines in MDA-MB-231 and Ramos cells (Homo sapiens, UniProt Q8NDH3) (Q8NDH3 whole entry): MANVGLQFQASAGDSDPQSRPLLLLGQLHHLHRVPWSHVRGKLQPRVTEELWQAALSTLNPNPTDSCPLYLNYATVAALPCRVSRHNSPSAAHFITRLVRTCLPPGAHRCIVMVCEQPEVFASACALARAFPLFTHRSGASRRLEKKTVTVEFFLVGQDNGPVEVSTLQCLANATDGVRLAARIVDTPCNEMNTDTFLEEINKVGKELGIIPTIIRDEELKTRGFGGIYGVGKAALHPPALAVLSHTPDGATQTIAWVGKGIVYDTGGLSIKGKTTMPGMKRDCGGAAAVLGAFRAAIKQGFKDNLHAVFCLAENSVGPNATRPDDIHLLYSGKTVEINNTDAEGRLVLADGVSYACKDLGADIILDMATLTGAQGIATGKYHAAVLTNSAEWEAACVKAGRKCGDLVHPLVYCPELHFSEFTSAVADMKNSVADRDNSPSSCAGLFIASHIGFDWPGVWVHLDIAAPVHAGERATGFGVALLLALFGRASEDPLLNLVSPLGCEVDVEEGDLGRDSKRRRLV
Chain of cysteines in MDA-MB-231 and Ramos cells (Homo sapiens, UniProt Q14790) (Q14790 217-479): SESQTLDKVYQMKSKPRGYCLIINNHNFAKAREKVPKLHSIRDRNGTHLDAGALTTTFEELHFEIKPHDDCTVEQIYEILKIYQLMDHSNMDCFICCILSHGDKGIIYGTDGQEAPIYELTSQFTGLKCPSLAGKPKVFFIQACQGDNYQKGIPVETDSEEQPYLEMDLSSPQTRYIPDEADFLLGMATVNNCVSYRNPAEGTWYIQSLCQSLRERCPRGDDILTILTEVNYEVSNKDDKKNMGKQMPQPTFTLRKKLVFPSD

Row | Compound | isoTOP-ABPP ratio Q14790_C360 [2]; 231 | isoTOP-ABPP ratio P27707_C9 [4]; 231 | isoTOP-ABPP ratio Q96F86_C413 [5]; 231 | isoTOP-ABPP ratio O14929_C101 [6]; 231 | isoTOP-ABPP ratio Q9Y679_C391 [3] | isoTOP-ABPP ratio Q9BRJ7_C88 [7] | isoTOP-ABPP ratio Q8N1F7_C522 [8]; 231 | also measured
1 | O=C(CCl)NC12CC3CC(CC(C3)C1)C2 [compound 21] | 0.9 | 1.3 | 0.8 | 1.2 |  |  |  | isoTOP-ABPP ratio, cysteine Q8NDH3_C81 [1]: 1.6; isoTOP-ABPP ratio, cysteine Q9Y679_C391 [3]: 1.5
2 | O=C(CCl)N1CCN(CC(=O)N2CCOCC2)CC1 [compound 29] |  |  |  |  |  |  |  | isoTOP-ABPP ratio Q8N1F7_C522 ([8]; ramos): 1.7; isoTOP-ABPP ratio Q14790_C360 ([2]; ramos): 1.6; isoTOP-ABPP ratio P27707_C9 ([4]; ramos): 1.2; isoTOP-ABPP ratio Q96F86_C413 ([5]; ramos): 1.9; isoTOP-ABPP ratio O14929_C101 ([6]; ramos): 1.0
3 | C=CC(=O)N(Cc1cccnc1)c1cc(C(F)(F)F)cc(C(F)(F)F)c1 [compound 31] | 0.5 |  |  |  |  | 2.9 |  | isoTOP-ABPP ratio Q8NDH3_C81 [1]: 1.0; isoTOP-ABPP ratio Q8N1F7_C522 ([8]; ramos): 3.6; isoTOP-ABPP ratio P27707_C9 ([4]; ramos): 1.2; isoTOP-ABPP ratio Q96F86_C413 ([5]; ramos): 1.3
4 | C=CC(=O)Nc1cc(F)c(N2CCN(C(=O)OC(C)(C)C)CC2)c(F)c1 [compound 38] | 1.0 | 1.8 |  | 1.1 |  | 0.4 | 1.7 | isoTOP-ABPP ratio Q8NDH3_C81 [1]: 2.0
5 | Cc1ccc(C=C(C#N)C(=O)NCCN2CCOCC2)cc1 [compound 41] | 0.5 | 0.4 |  | 0.6 |  |  | 0.8 | 
6 | O=C(CCl)Nc1cccc2ncccc12 [compound 51] |  |  | 20.0 |  | 20.0 | 1.0 |  | 

Second part, led by results:

Row | isoTOP-ABPP ratio Q14790_C360 [2]; 231 | isoTOP-ABPP ratio P27707_C9 [4]; 231 | isoTOP-ABPP ratio Q96F86_C413 [5]; 231 | isoTOP-ABPP ratio O14929_C101 [6]; 231 | isoTOP-ABPP ratio Q9Y679_C391 [3] | isoTOP-ABPP ratio Q9BRJ7_C88 [7] | isoTOP-ABPP ratio Q8N1F7_C522 [8]; 231 | Compound | also measured
7 | 0.4 |  | 0.7 |  | 1.2 |  |  | CC(C)CCOCCNC(=O)CCl [compound 27] | 
8 |  |  |  |  |  | 1.7 |  | COc1ccccc1OCCNC(=O)CCl [compound 28] | 
9 | 20.0 |  | 20.0 | 20.0 | 20.0 | 1.6 | 20.0 | CC1CCc2ccccc2N1C(=O)CCl (stereo not shown) [compound 45] | 
